The test system of one data set is rats. Put plainly: Short-term inhalation test (acute toxicity). It is filed as in vivo. Conditions: rats exposed for four hours at 50,000 ppm in air.
A short description of data set [1]: Solubility testing of lubricants, additives and impurities in deposition solvents. It is filed as physicochemical. As for the experimental part:
A disposable glass vial was placed on a four-place balance and the mass (MV) recorded. The balance with the glass vial was tared and deposition solvent was added (varying from 1 g to 5 g) and the mass (MS) was recorded. The balance with the deposition solvent in the glass vial was tared again. The lubricant was added in a dropwise fashion using a disposable plastic pipet and the mass (ML) recorded. The glass vial was then mixed by hand for 10 seconds to 30 seconds and the solution clarity was visually observed and recorded. If the solution was hazy, the lubricant was considered to have exceeded the solubility limit of the deposition solvent. If the solution was clear, additional drops of lubricant were added to the glass vial, the mass (ML) was recorded, the glass vial was shaken, and the solution clarity was observed. This process was continued until a hazy solution was observed or more than 10% w/w (weight of lubricant to combined weight of lubricant and deposition solvent) was reached. After a hazy solution or more than 10% w/w was reached, the glass vial with the solution was removed from the balance. The balance was tared and the final mass (MF) of the glass vial with deposition solvent and lubricant was measured and recorded. To account for the evaporative losses of the deposition solvent during the experiment, the mass of the vial and the mass of the lubricant added were subtracted from the total mass of the vial with the deposition solvent and lubricant to determine the final mass of deposition solvent (MS*) in the vial (i.e., MS*=MF−MV−ML). Solubility of the lubricant in deposition solvents was calculated as ML/(ML+MS*) and reported in % w/w (weight/weight).
If the endpoint was not clearly observed, the solubility experiment was repeated. Where a range is reported for solubility, the lower number is the highest soluble value and the higher number is the lowest insoluble value.

Each structure is given as a SMILES string.

`FC(F)(F)C1(F)OC1(F)C(F)(C(F)(F)F)C(F)(F)F` (stereo not drawn) [C6 Oxirane, 2,3-difluoro-2-(1,2,2,2-tetrafluoro-1-trifluoromethyl-ethyl)-3-trifluoromethyl-oxirane]: the “acute toxicity, short-term inhalation” value with rats is “low acute toxicity”.

Take `CCCCCCCCOC(=O)c1ccccc1C(=O)OCCCCCCCC` [DOP, Dioctylphthlate]: in data set [1], the “Solubility in C6 Oxirane” value is given as below 0.9%, the “Solubility in C9 Oxirane” value is listed as below 1.1%, the “Solubility in NOVEC 7100” value turned out to be 5.1% and the “Solubility in PF-5060DL” value is on record as below 0.005%. The “Solubility in VERTREL XF” value in data set [1] is reported as above 30%.

(Values after patent publication US20140093641A1, “LUBRICANT COMPOSITIONS CONTAINING FLUOROOXIRANES” (3MM INNOVATIVE PROPERTIES COMPANY, priority 2011, published 2014).)
